Data on 4 substances can be found in publication PMC2875304 (Experimental parasitology, 2010).

Assay [1] deals with Trypanosoma cruzi (M/HOM/AR/74/CA-I CL72). The format is cell-based. The conditions noted are these: for pIC50: 50% reduction in untreated-culture growth after 96 hours, triplicate wells, three independent trials.
A further assay concerns Rhodococcus rhodnii. Briefly: Minimal Inhibitory Concentration. The class given is cell-based. The conditions noted are these: single AMP treatment, result in words.
The test system of another assay is E. coli DH5α. Nature of the assay: Minimal Inhibitory Concentration. The format is cell-based, Escherichia coli. The settings on record: single AMP treatment, result in words.

pIC50: −log10 of the molar value. Like-named read-outs stand apart in the source and are kept apart here. No end group written: not given here. A value given as a limit tells only on which side of the number the result lay.

“GIGKFLHSAKKFGKAFVGEIMNS [Magainin, Magainin II]”: the pIC50 in assay [1] (read-out: IC50B, peptide B alone) is 5.00.
Turning to “GNNRPVYIPQPRPPHPRL-NH2 [Apidaecin, Apidaecin 14]”, the pIC50 in assay [1] (read-out: IC50A, peptide A alone) is 6.15.
Take “KWKLFKKIEKVGQNIRDGIIKAGPAVAVVGQATQIAK-NH2 [Cecropin A]”: the “Growth inhibition of T. cruzi” value in assay [1] (single peptide, 96 hour treatment, 0 to 10 μM concentration range) is at most 50%.
As for “QGYQGGYTRPFPRPPYGGGYHPVPVCTSCHRLSPLQARACCRQLGRCCDAKQTYG [Penaeidin, penaeidin]”, the “Effect on R. rhodnii in MIC assay” value in the assay with Rhodococcus rhodnii was “did not have an effect”. The “Effect on E. coli in MIC assay” value with E. coli DH5α was “did not have an effect”.
